This passage reports T/C results from PubChem BioAssay AID180 (DTP/NCI, 2004).

The assay deals with BDF1 mice, Adenocarcinoma 755 s.c., tumor weight T/C. The assay is described as follows: NCI In Vivo Anticancer Drug Screen. Data for tumor model Adenocarcinoma 755 (subcutaneous) in B6D2F1 (BDF1) mice. The conditions noted are these: endpoint: mean tumor weight, higher = larger tumour. In short, it runs like this: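 In vivo antitumor screen on a transplantable tumor line. Result equals the measure in compound-treated animals divided by the same measure in vehicle controls.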

Where “and” joins values, the source holds several entries; their conditions need not be identical. Equal entries are not always repeated.

In the case of `CS(=O)(=O)OCCCCOS(C)(=O)=O`, the T/C was 111 % of control (dose: 3.75 mg/kg/injection, schedule: Q03DX004 (ip), vehicle: saline); 54 % of control (dose: 5.0 mg/kg/injection, schedule: Q#A X022 (ip), vehicle: saline); 95 % of control (dose: 6.63 mg/kg/injection, schedule: Q01DX011 (ip), vehicle: carboxymethylcellulose (CMC)); 99 % of control (dose: 6.66 mg/kg/injection, schedule: Q01DX011 (ip), vehicle: carboxymethylcellulose (CMC)); 66 % of control (dose: 9.36 mg/kg/injection, schedule: Q01DX011 (ip), vehicle: carboxymethylcellulose (CMC)); 117 % of control (dose: 10.0 mg/kg/injection, schedule: Q01DX006 (iv), vehicle: saline). Moreover, the T/C is 36 % of control (dose: 10.0 mg/kg/injection, schedule: Q01DX011 (im), vehicle: saline); 62 % of control (dose: 10.0 mg/kg/injection, schedule: Q01DX011 (ip), vehicle: carboxymethylcellulose (CMC)); 71 % of control (dose: 10.0 mg/kg/injection, schedule: Q01DX011 (ip), vehicle: saline); 81 % of control (dose: 10.0 mg/kg/injection, schedule: Q01DX011 (oral), vehicle: saline); 35 % of control (dose: 10.0 mg/kg/injection, schedule: Q01DX011 (sc), vehicle: saline); 80 % of control (dose: 10.0 mg/kg/injection, schedule: Q#A X022 (ip), vehicle: saline). Also, the T/C reads like this: (dose: 12.5 mg/kg/injection, schedule: Q01DX011 (ip), vehicle: methylcellulose (MC)) 119 % of control; (dose: 13.25 mg/kg/injection, schedule: Q01DX011 (ip), vehicle: carboxymethylcellulose (CMC)) 101 % of control; (dose: 15.0 mg/kg/injection, schedule: Q03DX004 (ip), vehicle: saline) 87 % of control; (dose: 16.75 mg/kg/injection, schedule: Q01DX011 (ip), vehicle: carboxymethylcellulose (CMC)) 68 % of control; (dose: 17.5 mg/kg/injection, schedule: Q01DX011 (ip), vehicle: carboxymethylcellulose (CMC)) 106 % of control; (dose: 17.87 mg/kg/injection, schedule: Q01DX011 (ip), vehicle: carboxymethylcellulose (CMC)) 77 % of control. Also, the T/C was 76 % of control (dose: 18.73 mg/kg/injection, schedule: Q01DX011 (ip), vehicle: carboxymethylcellulose (CMC)); 100 % of control (dose: 20.0 mg/kg/injection, schedule: Q01DX006 (iv), vehicle: saline); 76 % of control (dose: 20.0 mg/kg/injection, schedule: Q01DX011 (im), vehicle: saline); 76 % of control (dose: 20.0 mg/kg/injection, schedule: Q01DX011 (ip), vehicle: carboxymethylcellulose (CMC)); 49 % of control (dose: 20.0 mg/kg/injection, schedule: Q01DX011 (oral), vehicle: saline); 104 % of control (dose: 20.0 mg/kg/injection, schedule: Q01DX011 (sc), vehicle: saline). The T/C is 39 % of control (dose: 20.0 mg/kg/injection, schedule: Q#A X022 (ip), vehicle: saline); 91 % of control (dose: 21.2 mg/kg/injection, schedule: Q01DX011 (ip), vehicle: carboxymethylcellulose (CMC)); 81 % of control (dose: 21.32 mg/kg/injection, schedule: Q01DX011 (ip), vehicle: carboxymethylcellulose (CMC)); 77 % of control (dose: 25.0 mg/kg/injection, schedule: Q01DX011 (ip), vehicle: methylcellulose (MC)); 26 % of control and 50 % of control (dose: 26.5 mg/kg/injection, schedule: Q01DX011 (ip), vehicle: carboxymethylcellulose (CMC)); 53 % of control and 63 % of control (dose: 26.65 mg/kg/injection, schedule: Q01DX011 (ip), vehicle: carboxymethylcellulose (CMC)). The T/C is 83 % of control (dose: 33.5 mg/kg/injection, schedule: Q01DX011 (ip), vehicle: carboxymethylcellulose (CMC)); 98 % of control (dose: 35.0 mg/kg/injection, schedule: Q01DX011 (ip), vehicle: carboxymethylcellulose (CMC)); 34 % of control (dose: 35.33 mg/kg/injection, schedule: Q01DX011 (ip), vehicle: carboxymethylcellulose (CMC)); 38 % of control (dose: 35.5 mg/kg/injection, schedule: Q01DX011 (ip), vehicle: carboxymethylcellulose (CMC)); 81 % of control (dose: 35.75 mg/kg/injection, schedule: Q01DX011 (ip), vehicle: carboxymethylcellulose (CMC)); 73 % of control (dose: 37.45 mg/kg/injection, schedule: Q01DX011 (ip), vehicle: carboxymethylcellulose (CMC)). Further, the T/C by setting is: (dose: 40.0 mg/kg/injection, schedule: Q01DX006 (iv), vehicle: saline) 84 % of control; (dose: 40.0 mg/kg/injection, schedule: Q01DX011 (im), vehicle: saline) 17 % of control; (dose: 40.0 mg/kg/injection, schedule: Q01DX011 (ip), vehicle: carboxymethylcellulose (CMC)) 10 % of control; (dose: 40.0 mg/kg/injection, schedule: Q01DX011 (oral), vehicle: saline) 30 % of control and 49 % of control; (dose: 40.0 mg/kg/injection, schedule: Q01DX011 (sc), vehicle: saline) 41 % of control and 45 % of control; (dose: 40.0 mg/kg/injection, schedule: Q#A X022 (ip), vehicle: saline) 17 % of control. The T/C is, setting by setting: (dose: 50.0 mg/kg/injection, schedule: Q01DX011 (ip), vehicle: methylcellulose (MC)) 30 % of control; (dose: 53.0 mg/kg/injection, schedule: Q01DX011 (ip), vehicle: carboxymethylcellulose (CMC)) 3 % of control; (dose: 53.3 mg/kg/injection, schedule: Q01DX011 (ip), vehicle: carboxymethylcellulose (CMC)) 1 % of control; (dose: 57.96 mg/kg/injection, schedule: Q01DX011 (ip), vehicle: carboxymethylcellulose (CMC)) 113 % of control; (dose: 60.0 mg/kg/injection, schedule: Q03DX004 (ip), vehicle: saline) 67 % of control and 71 % of control; (dose: 67.0 mg/kg/injection, schedule: Q01DX011 (ip), vehicle: carboxymethylcellulose (CMC)) 37 % of control. Besides, the T/C reads like this: (dose: 70.0 mg/kg/injection, schedule: Q01DX001 (ip), vehicle: saline) 90 % of control; (dose: 70.0 mg/kg/injection, schedule: Q01DX011 (ip), vehicle: carboxymethylcellulose (CMC)) 49 % of control; (dose: 70.0 mg/kg/injection, schedule: Q07DX002 (ip), vehicle: saline) 99 % of control; (dose: 71.5 mg/kg/injection, schedule: Q01DX011 (ip), vehicle: carboxymethylcellulose (CMC)) 58 % of control; (dose: 72.45 mg/kg/injection, schedule: Q01DX011 (ip), vehicle: carboxymethylcellulose (CMC)) 29 % of control; (dose: 80.0 mg/kg/injection, schedule: Q01DX006 (iv), vehicle: saline) 88 % of control. Moreover, the T/C was 17 % of control and 27 % of control (dose: 80.0 mg/kg/injection, schedule: Q01DX011 (oral), vehicle: saline); 19 % of control (dose: 96.6 mg/kg/injection, schedule: Q01DX011 (ip), vehicle: carboxymethylcellulose (CMC)); 39 % of control and 62 % of control (dose: 120.0 mg/kg/injection, schedule: Q03DX004 (ip), vehicle: saline); 98 % of control and 111 % of control (dose: 140.0 mg/kg/injection, schedule: Q01DX001 (ip), vehicle: saline); 91 % of control (dose: 140.0 mg/kg/injection, schedule: Q07DX002 (ip), vehicle: saline); 14 % of control (dose: 160.0 mg/kg/injection, schedule: Q01DX011 (ip), vehicle: saline). Also, the T/C runs as follows: (dose: 160.0 mg/kg/injection, schedule: Q01DX011 (oral), vehicle: saline) 41 % of control; (dose: 240.0 mg/kg/injection, schedule: Q03DX004 (ip), vehicle: saline) 24 % of control and 38 % of control; (dose: 280.0 mg/kg/injection, schedule: Q07DX002 (ip), vehicle: saline) 77 % of control; (dose: 320.0 mg/kg/injection, schedule: Q01DX011 (oral), vehicle: saline) 9 % of control; (dose: 1120.0 mg/kg/injection, schedule: Q01DX001 (ip), vehicle: saline) 58 % of control.
Take `CC(=O)OCC1OC(n2ncc(=O)[nH]c2=O)C(OC(C)=O)C1OC(C)=O` (stereo not drawn): the T/C was 115 % of control (dose: 187.5 mg/kg/injection, schedule: Q01DX011 (ip), vehicle: other); 121 % of control (dose: 375.0 mg/kg/injection, schedule: Q01DX011 (ip), vehicle: other); 43 % of control (dose: 1500.0 mg/kg/injection, schedule: Q01DX011 (ip), vehicle: other).
Regarding `CC(C)Cn1cnc2c(SCc3ccccn3)nc(N)nc21`, the T/C is, setting by setting: (dose: 20.0 mg/kg/injection, schedule: Q01DX011 (ip), vehicle: methylcellulose (MC)) 5 % of control; (dose: 65.0 mg/kg/injection, schedule: Q01DX011 (ip), vehicle: methylcellulose (MC)) 1 % of control.
As to `C=CCSc1nc(N)nc2nc[nH]c12`, the T/C reads like this: (dose: 2.0 mg/kg/injection, schedule: Q01DX011 (ip), vehicle: methylcellulose (MC)) 50 % of control; (dose: 4.0 mg/kg/injection, schedule: Q01DX011 (ip), vehicle: methylcellulose (MC)) 41 % of control; (dose: 16.0 mg/kg/injection, schedule: Q01DX011 (ip), vehicle: methylcellulose (MC)) 3 % of control.
